“Also recorded” adds a separate entry of the source. Like-named read-outs stand apart in the source and are kept apart here.
Experiments:
[1] = set-up: method as in package insert; settings: ref package insert, cited from earlier work
[2] = cited from earlier work
TMD8 = settings: ABC DLBCL lines in vitro (TMD8); cited from earlier work
DLBCL [3] = settings: cited from earlier work
[4] = LC-MS/MS quantification of zanubrutinib in time-matched plasma and CSF samples of patients; assay type: in vivo, human; settings: for concentration at 12 h: read-out: Trough CSF concentration
Description: Zanubrutinib is absorbed rapidly with a median time to maximum concentration of 2 h. Blood and CSF samples were collected at 2 or 3 h after the oral administration of zanubrutinib at 160 mg. Zanubrutinib administration was performed for more than 7 d. Additional plasma and CSF specimens for trough concentration testing were collected just before zanubrutinib administration (i.e., 12 h after the last zanubrutinib dose). Biological samples were stored at −20°C for a maximum of one month before analysis.
Zanubrutinib in CSF and sodium heparin plasma samples was quantified by LC-MS/MS. Zanubrutinib standard was obtained from Beigene (Beijing, China). Methanol, methanoic acid, and acetonitrile (high-performance liquid chromatography gradient grade) were purchased from Fisher Scientific, USA. Ultrapure water was obtained using a Milli-Q purification system (Millipore, MA, USA). Control plasma and CSF samples for standards and quality control were obtained from patients treated in the department of hematology of PUMCH. The detailed LC-MS/MS procedure is described in the Supplementary Material .
Zanubrutinib solutions were prepared at a concentration of 1 mg/ml in methanol and further diluted with methanol to obtain working solutions at concentrations of 100–1,000,000 pg/ml. Biological samples (50 µl) were mixed with 10 µl of methanol and 100 µl of acetonitrile. The mixed samples were centrifuged at 2,500 rpm for 3 min at room temperature and at 17,500 rpm for 10 min at 2°C–8°C. The supernatant (120 μl) was then injected into the chromatography system at room temperature.
The analytes were analyzed by reverse-phase chromatography using an UPLC XevoTQ-XS system (Waters Corp., Milford, MA, USA) equipped with an ACQUUITY UPLC®BEH C18 column (2.1×50 mm, 1.7 μm; Waters Corp.). The mobile phase consisted of 0.1% formic acid in acetonitrile and ultrapure water. A mass spectrometer was used in positive mode with an electrospray ionization source. Multiple reaction monitoring mode was used to detect analytes and internal standards.
To create a stock solution of zanubrutinib with a concentration of 1 mg/ml, zanubrutinib (4.55 mg) was added to methanol (4.55 ml). The standard working solution and quality control standard solution of zanubrutinib were then obtained by diluting the stock solution to 1 μg/ml with methanol. To establish the standard curve, the blank control samples of plasma and CSF were added into 50-μl EP tubes followed by the addition of 10 μl standard working solution with different concentrations (see the table below).
The concentrations of analytes in CSF and plasma samples were obtained from the calibration curve constructed by plotting the peak area ratio of each analyte to the internal standard against the concentration. The analyte concentrations in the samples were calculated by linear regression.

IL-10 = assay: CSF IL-10 concentration during treatment; assay type: in vivo, human; settings: case 6, zanubrutinib monotherapy for 7 d
[5] = system: diffuse large B-cell lymphoma (DLBCL); assay: Clinical response of DLBCL patients (Lugano 2014 / 2005 IELSG criteria); assay type: in vivo, human; settings: for MRI lesion in the cerebellum: case 5, zanubrutinib monotherapy
Description: Patients with treatment-naive and relapsed/refractory DLBCL were enrolled in this study. […] The exclusion criteria were as follows: severe disease complications or serious comorbidities; active infection; uncontrolled bleeding events; and pregnancy or lactation in women.
The dose of zanubrutinib was fixed at 160 mg twice per day in all patients. Treatment duration and the combined drugs/regimens were decided by the clinicians.
Four regimens were evaluated in this study: Regimen 1, zanubrutinib + rituximab in primary vitreoretinal lymphoma (PVRL) (zanubrutinib at 160 mg twice per day until disease progression or intolerance and rituximab at 375 mg/m^2 every 21 days); Regimen 2, zanubrutinib combined with high-dose methotrexate with or without cytarabine (HD-MTX regimen/MA regimen) in CNSL (methotrexate at 3.5–5.0 g/m^2 d1 and cytarabine at […] every 12 h on d2 and d3, every 21 days per cycle); Regimen 3, zanubrutinib combined with dexamethasone, ifosfamide, carboplatin, and etoposide (DICE) or dexamethasone, cytarabine, and cis-platinum (DHAP) in relapsed and refractory patients every 21 days per cycle as prescribed for the salvage chemotherapy of autologous stem cell transplantation (ASCT); and Regimen 4, zanubrutinib combined with rituximab, cyclophosphamide, epirubicin, vindesine, and prednisone (R-CHOP) for eight cycles as an initial treatment in IVLBCL.
The clinical response was assessed based on the Lugano 2014 Criteria for DBLCL and 2005 IELSG Criteria for PCNSL ([24], [25]). AEs were recorded and assessed according to the Common Terminology Criteria for Adverse Events (CTCAE) v4.0.
Continuous variables were expressed as median and range and compared by Mann–Whitney U-test. Categorical variables were reported as percentages and compared by chi-squared test. The duration of response (DOR) was determined using the Kaplan–Meier method. Statistical analyses were performed with SPSS 25.0 (IBM, NY, USA) or Prism 7.0 (GraphPad, CA, USA). P < 0.05 was considered statistically significant.

CNSL = settings: high risk group, prophylaxis; cited from earlier work
[6] = set-up: method as in PMID 32583848; settings: cited from earlier work; for Mean CSF (trough concentration): PCNSL patients
DLBCL [7] = settings: 14-d ibrutinib therapy before TEDDI-R; cited from earlier work
[8] = cited from earlier work; remark: listed apart in the source
[9] = relapsed non-GCB DLBCL, phase 2, 41 patients

Compound: C=CC(=O)N1CCC([C@@H]2CCNc3c(C(N)=O)c(-c4ccc(Oc5ccccc5)cc4)nn32)CC1 [Zanubrutinib]
- Median time to maximum concentration [1]: 2 h
- Median time to maximum concentration ([1]; listed as zanubrutinib): approximately 2 h
- Protein binding rate ([2]; zanubrutinib, no reference given): 94%
- IC50 (TMD8): 0.4 nM
- Patients who achieved remission (DLBCL [3]; among 75 patients with non-Hodgkin lymphoma (including 23 with DLBCL)): 14
- ORR (DLBCL [3]; relapsed non-GCB DLBCL, phase 2, 41 patients, median follow-up 6.8 months): 29.3%
- AEs leading to treatment discontinuation, patients (DLBCL [3]; [9]): four
- Complete response rate (DLBCL [3]; [9]): 17.1%
- Mean CSF ([4]; 160mg bid): 2.94 ng/mL
- Mean Plasma ([4]; 160mg bid): 143.2 ng/mL
- Samples with peak CSF concentration above the IC50 values ([4]; 22/23 samples): 95.7%
- Corrected CSF/plasma ratio ([4]; corrected for 94% protein binding, entire series, 23 samples): 42.7 ± 27.7%
- Corrected CSF/plasma ratio ([4]; corrected for 94% protein binding, entire series, 23 samples, listed as zanubrutinib): 42.7% ± 27.7%
- Mean plasma concentration ([4]; entire series, 23 samples, peak time point 2-3 h after 160 mg oral, 160 mg twice per day): 143.1906 ± 93.3027 ng/mL
- concentration at 2 h ([4]; human, CSF, oral, 160 mg, 2 h after administration, 10 samples, read-out: Mean CSF concentration): 4.12 ± 2.86 ng/mL
- concentration at 3 h ([4]; human, CSF, oral, 160 mg, 3 h after administration, 13 samples, read-out: Mean CSF concentration): 2.43 ± 2.03 ng/mL
- concentration at 12 h ([4]; human, CSF, oral, 160 mg, case 1, 12 h after the last dose): 0.267 ng/mL
- concentration at 12 h ([4]; human, CSF, oral, 160 mg, case 3, 12 h after the last dose): 5.02 ng/mL
- Kp at 2 h ([4]; human, CSF/plasma, oral, 160 mg, 2 h after administration, 10 samples, read-out: Corrected CSF/plasma ratio): 0.412 ± 0.325
- Kp at 3 h ([4]; human, CSF/plasma, oral, 160 mg, 3 h after administration, 13 samples, read-out: Corrected CSF/plasma ratio): 0.433 ± 0.265
- Kp ([4]; human, CSF/plasma, oral, 160 mg, corrected for 94% protein binding, entire series, 23 samples, read-out: Corrected CSF/plasma ratio): ~0.4
- Kp ([4]; human, CSF/plasma, oral, 160 mg, corrected for 94% protein binding, entire series, read-out: Corrected CSF/plasma ratio, range): 0.086 to 1.06
- Kp ([4]; human, CSF/plasma, oral, 160 mg, not corrected for protein binding, read-out: CSF/plasma ratio): ~0.02
- Kp ([4]; human, CSF/plasma, oral, 160 mg, not corrected for protein binding, read-out: CSF/plasma ratio, range): 0.0061 to 0.0583
- Kp ([4]; human, CSF/plasma, oral, 160 mg, six patients with repeated samples in different cycles, read-out: CSF/plasma ratio, range among patients): 0.105 to 0.781
- concentration at 2 h ([4]; human, plasma, oral, 160 mg, 2 h after administration, 10 samples, read-out: Mean plasma concentration): 183 ± 91.1 ng/mL
- concentration at 3 h ([4]; human, plasma, oral, 160 mg, 3 h after administration, 13 samples, read-out: Mean plasma concentration): 126 ± 91.6 ng/mL
- CSF IL-10 concentration (IL-10): dramatically decreased
- MRI lesion in the cerebellum [5]: shrank and disappeared within three weeks
- MRI lesion in the cerebellum ([5]; listed as zanubrutinib): the mass shrank and disappeared
- Response to monotherapy as lead-in therapy ([5]; two relapsed PCNSL cases, monotherapy before combination chemotherapy): rapid and dramatic response; also recorded: significant disease control within 14 d

Compound: CN(Cc1cnc2nc(N)nc(N)c2n1)c1ccc(C(=O)N[C@@H](CCC(=O)O)C(=O)O)cc1 [high-dose MTX, methotrexate]
- CNS relapsing rate (CNSL): > 10%

Compound: CC#CC(=O)N1CC[C@@H](n2c(=O)n(-c3ccc(Oc4ccccc4)cc3)c3c(N)ncnc32)C1 [Tirabrutinib]
- Mean CSF (trough concentration) ([6]; 320mg qd): 2.19 ng/mL
- Mean CSF (trough concentration) ([6]; 320mg qd, listed as tirabrutinib): 2.19 ± 0.476 ng/mL
- Mean Plasma ([6]; 320mg qd): 16.3 ng/mL
- Mean CSF (trough concentration) ([6]; 480mg qd): 14.0 ng/mL
- Mean CSF (trough concentration) ([6]; 480mg qd, listed as tirabrutinib): 14.0 ± 8.92 ng/mL
- Mean Plasma ([6]; 480mg qd): 77.0 ng/mL

Compound: C=CC(=O)N1CCC[C@@H](n2nc(-c3ccc(Oc4ccccc4)cc3)c3c(N)ncnc32)C1 [Ibrutinib, ibrutinib]
- Protein binding ([2]; ibrutinib): 97.3%
- Patients with disease improvement after monotherapy (DLBCL [7]): 94%
- Mean Plasma ([8]; 560mg qd): 53.7 ng/mL
- Mean Plasma ([8]; 700mg qd): 217.4 ng/mL
- Mean Plasma ([8]; 840mg qd): 875.6 ng/mL

Reference: PMC8739956 (Frontiers in Oncology, 2021)
